In article PMC11780439 (ACS Omega, 2025):
Read-outs that look alike come from different tables or passages of the source.

Legend:
prion protein (PrP) [1] = target: T1, prion protein (PrP) (Mesocricetus auratus, UniProt P04273); assay: biochemical
T1 construct: gene PRNP

prion protein (PrP) [2] = target: T1, prion protein (PrP); assay: biochemical; remark: listed apart in the source

T1 sequence (P04273 90-231 limits assumed): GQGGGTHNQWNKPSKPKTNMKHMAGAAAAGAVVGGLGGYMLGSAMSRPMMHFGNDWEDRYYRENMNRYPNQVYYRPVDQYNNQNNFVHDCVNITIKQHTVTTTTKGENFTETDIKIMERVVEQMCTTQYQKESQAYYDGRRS

SMILES	IC50 (prion protein (PrP) [1]) [µM]	IC50 (prion protein (PrP) [2]) [µM]
O=C(/C=C/c1ccc(O)c(O)c1)O[C@@H]1C[C@](O)(C(=O)O)C[C@@H](O)[C@H]1O [CA, chlorogenic acid]	64.4 ± 12.1	
O=C(O[C@@H]1Cc2c(O)cc(O)cc2O[C@@H]1c1cc(O)c(O)c(O)c1)c1cc(O)c(O)c(O)c1 [EGCG, epigallocatechin gallate]		2.84 ± 0.97
O=C(/C=C/c1ccc(O)c(O)c1)O[C@@H]1C[C@@](O)(C(=O)O)C[C@@H](O)[C@@H]1O [NCA, neochlorogenic acid]	35.3 ± 7.09	
